From article PMC5175340, “eIF2β is critical for eIF5-mediated GDP-dissociation inhibitor activity and translational control” (Nucleic Acids Research, 2016)
Values belong to the compound of their own block, whether it stands above or below them.

Legend:
sif285-1 GCN2 cells = assay: Growth on SD ±3AT media; type: cell-based, yeast; settings: sif285-1 cells transformed with WT GCN2 plasmid
Experimental: Strains used and generated in this work are derivatives of S288c and are described in Supplementary Table S1. Cell growth was performed at 30°C in standard yeast rich (YPD), synthetic defined minimal (SD) or synthetic complete (SC) media lacking nutrients for plasmid selection. All media have 2% glucose as a carbon source ([25]). 3-Amino-1,2,4-triazole (3AT) (Fluka) was added where indicated. For serial dilution growth assays, cells were grown to A600 = 0.6, diluted to 0.1 and 2–3 μl of 10-fold dilutions were spotted on the agar surface. Plasmid shuffling to select for loss of URA3 plasmids employed 5-fluoro-orotic acid (5-FOA; Sigma-Aldrich), while loss of LEU2 plasmids relied on passive loss during unselected growth and subsequent screening. Mating type switching employed HO plasmid pAV1621 (pHO1.5) followed by 5-FOA, sporulation, tetrad dissection and mating type testing ([25]). gcd6Δ sui3Δ double deletion strains (GP7216-19) were made by polymerase chain reaction (PCR) amplifying gcd6Δ::KanMX cassette from a BY4743 gcd6Δ::KanMX/GCD6 diploid strain (GP4146) and transforming the DNA fragment into sui3Δ gcn2Δ [SUI3-Flag TRP1] [GCD6 URA3] strains to generate G418 resistant cells unable to lose the covering GCD6 plasmid upon 5-FOA selection.

HIS4-LacZ [1] = assay: β-galactosidase assay of HIS4-LacZ fusion; type: cell-based, yeast; settings: sif285-1 cells bearing GCD6, 3AT treatment
Experimental: Measurement of β-galactosidase levels from a HIS4-LacZ fusion genomically-integrated at ura3-52 was performed exactly as described ([36]) using whole protein extracts from cells grown in SC medium lacking histidine and uracil or following addition of 10 mM 3AT for 6 h. Units are nmole o-nitrophenyl-β-D-galacto-pyranoside cleaved/min/μg total protein ± SE, n = 3.

HIS4-LacZ [2] = system: HIS4-LacZ; design: method as in PMID 16153175; settings: by GAAC via increased GCN4 translation in the presence of 3AT; cited from earlier work
eIF2 WT = biological target: T1, eIF2 WT (Saccharomyces cerevisiae, UniProt P32481); assay: Steady-state fluorescence titration of 100 nM BODIPY-FL nucleotide with increasing apo-eIF2 (490 nm excitation, 509 nm emission) in 30 mM HEPES, 100 mM KCl, 10 mM MgCl2, pH 7.4, at room temperature, fitted to a single-site binding model.
T1 construct: gene GCD11; purified apo-eIF2 heterotrimer; V5-SUI3 (N-terminal V5 tag on eIF2β), SUI2, His6-GCD11; nucleotide-free after EDTA dialysis
T1 sequence (P32481 whole entry): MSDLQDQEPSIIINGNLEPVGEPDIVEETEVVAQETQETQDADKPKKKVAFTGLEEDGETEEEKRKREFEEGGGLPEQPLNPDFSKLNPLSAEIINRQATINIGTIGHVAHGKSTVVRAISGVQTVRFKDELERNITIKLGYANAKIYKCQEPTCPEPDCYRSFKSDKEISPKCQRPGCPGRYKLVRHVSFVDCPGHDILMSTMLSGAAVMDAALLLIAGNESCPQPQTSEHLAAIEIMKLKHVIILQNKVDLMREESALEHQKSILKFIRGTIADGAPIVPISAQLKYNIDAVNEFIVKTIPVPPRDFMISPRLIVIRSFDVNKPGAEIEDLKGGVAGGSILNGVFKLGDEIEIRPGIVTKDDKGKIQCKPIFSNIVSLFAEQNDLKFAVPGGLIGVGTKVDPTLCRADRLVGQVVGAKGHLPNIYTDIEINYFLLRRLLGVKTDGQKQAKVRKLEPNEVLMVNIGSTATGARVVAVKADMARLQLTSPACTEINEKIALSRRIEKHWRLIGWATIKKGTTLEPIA
T1 sequence (P20459 whole entry partner): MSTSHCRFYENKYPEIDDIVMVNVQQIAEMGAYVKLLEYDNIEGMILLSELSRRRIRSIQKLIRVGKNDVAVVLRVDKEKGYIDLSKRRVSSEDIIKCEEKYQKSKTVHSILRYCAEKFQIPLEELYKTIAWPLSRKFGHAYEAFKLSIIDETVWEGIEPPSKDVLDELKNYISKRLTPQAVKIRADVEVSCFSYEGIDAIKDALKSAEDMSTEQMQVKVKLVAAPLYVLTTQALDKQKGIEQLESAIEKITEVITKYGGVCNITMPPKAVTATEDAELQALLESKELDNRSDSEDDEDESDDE
T1 sequence (P09064 whole entry partner): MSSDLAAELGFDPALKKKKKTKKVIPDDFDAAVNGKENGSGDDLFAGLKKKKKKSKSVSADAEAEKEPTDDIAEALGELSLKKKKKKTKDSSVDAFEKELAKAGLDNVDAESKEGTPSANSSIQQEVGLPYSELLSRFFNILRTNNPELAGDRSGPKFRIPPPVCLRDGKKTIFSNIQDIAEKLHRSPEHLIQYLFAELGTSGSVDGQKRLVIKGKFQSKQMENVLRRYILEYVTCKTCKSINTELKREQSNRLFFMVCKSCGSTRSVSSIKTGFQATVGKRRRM
Experimental: (§1) To assay nucleotide affinity, fluorescence intensity of 100 nM of BODIPY-FL-GDP or BODIPY-FL-GTP (Thermo Fisher Scientific) in 180 μl of assay buffer (30 mM HEPES, 100 mM KCl, 10 mM MgCl2, pH 7.4) was measured using a Fluoromax-4 spectrophotometer (Horiba) (490 nm excitation, 509 nm emission). Yeast Met–tRNAi was assayed in a similar manner using 20 nM BOP-N-Met–tRNAi (tRNA probes) but with the addition of 1 mM GTP. Change in fluorescence intensity was measured upon addition of increasing amounts of apo–eIF2, incubating for 5 min at room temperature each time. Each measurement was blanked against a control without nucleotide to account for any affect of eIF2 and data were corrected for dilution effects caused by volume addition and normalized to starting values before being fitted to a single site binding model: y = 1 + [(ΔFmax - 1)*(x/(x + Kd))].
(§2) eIF2 was purified from yeast strains GP7145 and GP7146 expressing V5-sui3-E189K or the V5-SUI3 derivatives of eIF2β by sequential nickel affinity, HiTrap Heparin and HiTrap Q sepharose chromatography as described ([14]). To obtain apo–eIF2 free from nucleotide, eIF2 was dialysed with EDTA (30 mM HEPES, 100 mM KCl, 1 mM DTT, 1 mM EDTA, 10% glycerol, pH 7.4) then with magnesium (30 mM HEPES, 100 mM KCl, 1 mM DTT, 0.1 mM MgCl2, 10% glycerol, pH 7.4).
(§3) Figure 4. […] (A) Affinity (Kd) of GDP, GTP and Met–tRNAi to purified WT and mutant (β E189K) apo–eIF2 complexes measured by monitoring the fluorescence intensity of 100 nM BODIPY-FL-GDP (left), 100 nM BODIPY-FL-GTP (middle) or 20 nM BOP-N-Met–tRNAi with 1 mM GTP (right). […] K1/2 and Kmax values were determined from curve fitting y = [(Kmax × x)/(K1/2 + x)] + c. (C) Western blotting of IP of Flag-eIF2β, Flag-E189K and an untagged control from cells showing its co-association with known binding proteins. Quantification of at least three repeats using Li-Cor fluorescent secondary antibodies ±SE. […] Tif5 is indicated with an arrow, ‘♦’ marks a non-specific band.

[3] = biological target: T2, eIF2 (β E189K), eIF2βE189K (Saccharomyces cerevisiae, UniProt P09064+P32481, E189K); assay: as above
T2 construct: purified apo-eIF2 heterotrimer; V5-sui3-E189K (N-terminal V5 tag on eIF2β), SUI2, His6-GCD11; nucleotide-free after EDTA dialysis
T2 sequence (P09064 whole entry E189K): as the sequence (P09064 whole entry partner) above, with E189K counted along it
T2 sequence (P32481 whole entry): as the sequence (P32481 whole entry) above
T2 sequence (P20459 whole entry, stated change not applied, further chain): as the sequence (P20459 whole entry partner) above
Experimental: as §1, §2, §3

[4] = GDP dissociation assay, intrinsic BODIPY-GDP off-rate; type: binding; settings: 20 nM eIF2•BODIPY-GDP, 1 mM unlabelled GDP, 0 nM eIF2B
Experimental: (§4) Fluorescent eIF2•BODIPY-GDP binary complex was formed by incubating apo–eIF2 with a 2× excess of BODIPY-FL-GDP (Thermo Fisher Scientific) for 20 min at room temperature. Excess nucleotide was removed by passing through a G-50 sephadex column (GE Healthcare). Labelling efficiency was calculated to exceed 90%. […] K1/2 and Kmax values were determined from curve fitting y = [(Kmax × x)/(K1/2 + x)] + c.

Met–tRNAi = assay: Steady state fluorescence, BOP-N-Met-tRNAi binding to apo-eIF2; design: species or system Yeast; settings: 20 nM BOP-N-Met-tRNAi with 1 mM GTP, purified apo-eIF2
Experimental: as §1

eIF5 = eIF5 GDI activity, BODIPY-GDP release with GST-eIF5; type: biochemical, yeast; settings: eIF2•BODIPY-GDP 20 nM, purified eIF5 0–80 nM
Chain of eIF5 (P38431 whole entry): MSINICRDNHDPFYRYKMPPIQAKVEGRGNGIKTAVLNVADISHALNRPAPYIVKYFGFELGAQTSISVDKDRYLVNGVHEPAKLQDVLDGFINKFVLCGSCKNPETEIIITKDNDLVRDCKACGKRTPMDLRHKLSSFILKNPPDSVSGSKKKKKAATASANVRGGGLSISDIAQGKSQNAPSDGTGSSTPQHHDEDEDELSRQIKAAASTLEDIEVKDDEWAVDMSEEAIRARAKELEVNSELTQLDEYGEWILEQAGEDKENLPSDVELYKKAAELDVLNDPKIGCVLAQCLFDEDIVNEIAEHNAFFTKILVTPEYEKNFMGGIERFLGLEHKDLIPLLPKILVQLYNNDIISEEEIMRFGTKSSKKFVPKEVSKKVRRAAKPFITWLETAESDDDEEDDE
Chain of eIF5 (P32481 whole entry, further chain): as the sequence (P32481 whole entry) above
Chain of eIF5 (P20459 whole entry, further chain): as the sequence (P20459 whole entry partner) above
Experimental: as §4
We therefore decided to assess eIF5 GDI activity directly. We monitored eIF5 GDI activity by incubating eIF2•BODIPY-GDP (20 nM) with purified eIF5 (0–80 nM) and recorded the fluorescence change upon dissociation of BODIPY-GDP from eIF2.

[5] = biological target: eIF2^βE189K (V5-eIF2β-E189K, eIF2α, His6-eIF2γ), purified (S. cerevisiae) (UniProt P09064)
Chain of eIF2^βE189K (V5-eIF2β-E189K, eIF2α, His6-eIF2γ), purified (S. cerevisiae) (P09064 whole entry E189K, chain 1 of 3): as the sequence (P09064 whole entry partner) above, with E189K counted along it
Chain of eIF2^βE189K (V5-eIF2β-E189K, eIF2α, His6-eIF2γ), purified (S. cerevisiae) (chain, as listed by the source E189K E189K, chain 2 of 3): as the sequence (P20459 whole entry partner) above
Chain of eIF2^βE189K (V5-eIF2β-E189K, eIF2α, His6-eIF2γ), purified (S. cerevisiae) (chain, as listed by the source E189K E189K, chain 3 of 3): as the sequence (P32481 whole entry) above

Compound: Nc1nc[nH]n1 [3AT, 3-Amino-1,2,4-triazole]
cell growth (sif285-1 GCN2 cells): impaired
HIS4-LacZ expression (HIS4-LacZ [1]): not derepressed
HIS4 transcription derepression (HIS4-LacZ [2]): ~2 fold

Compound: Cc1cc(C)n2c1C=C1C=CC(CCC(=O)NCCNC(=O)OC3C(COP(=O)(O)OP(=O)(O)O)OC(n4cnc5c(=O)[nH]c(N)nc54)C3O)=[N+]1[B-]2(F)F (centres unmarked) [BODIPY-FL-GDP, guanosine 5'-diphosphate, BODIPY FL 2'-(or-3')-O-(N-(2-aminoethyl)urethane)]
Kd (eIF2 WT): 19.1 nM
Kd [3]: 19.3 nM

Compound: Cc1cc(C)n2c1C=C1C=CC(CCC(=O)NCCNC(=O)OC3C(COP(=O)(O)OP(=O)(O)OP(=O)(O)O)OC(n4cnc5c(=O)[nH]c(N)nc54)C3O)=[N+]1[B-]2(F)F (centres unmarked) [BODIPY-FL-GTP, guanosine 5'-triphosphate, BODIPY FL 2'-(or-3')-O-(N-(2-aminoethyl)urethane)]
Kd (eIF2 WT): 35.2 nM
Kd [3]: 32 nM

Compound: eIF2 WT: Wild-type yeast translation initiation factor eIF2 complex purified from an overexpression yeast strain (V5-SUI3)
Koff BODIPY-GDP [4]: 0.292 ± 0.025 min⁻¹
Kd (Met–tRNAi): 2.8 nM
stabilization of GDP binding by eIF5 (GDI activity) (eIF5): stabilized by eIF5

K1/2 of eIF2B for GEF-promoted release of BODIPY-FL-GDP from purified eIF2•BODIPY-GDP (20 nM), room temperature [5]: 92.6 nM
Compound: eIF2B, P14741 1-305; P32502 1-381; P09032 1-578; P12754 1-651; P32501 1-712
